Test results from patent publication US20090258850A1, “STABILIZED THERAPEUTIC COMPOSITIONS AND FORMULATIONS” (priority 2007, published 2009).

Tests used:
[1] = tested on: rhesus monkeys subjected to 6 Gy TBI; details: in vivo
non-irradiated monkeys = details: 15 mg/Kg/d i.m. x5 days, no TBI
Protocol: Primates used in this study were purpose bred rhesus monkeys (Macaca Mulatta), weighing 2.5 to 4.0 Kg each and aged 2 to 3 years. 5-Androstene-3β,17β-diol (5-AED), prepared as a 100 mg/mL aqueous suspension using 7.4 mM sodium phosphate buffer, pH 6.0, containing 0.5% polysorbate 80, 0.02% benzalkonium chloride and 4.8% mannitol and its vehicle, consisting of the identical formulation without 5-AED, was administered intramuscularly (i.m.) at a dose of 15 mg/kg/d (150 μL/Kg/d), for 5 consecutive days. […] 5-AED and vehicle were administered by deep intramuscular injections into alternating left and right m. vastus lateralis. In the second study, 10 animals (3 males and 2 females in each group) received either 15 mg/Kg/d (150 μL/Kg/d), 5-AED in a stabilized formulation or vehicle for 5 consecutive days, but were not subjected to TBI.
Clinical pathology was conducted as follows: Bone marrow was aspirated under neurolept anesthesia using Ketalar (Apharmo, Arnhem, the Netherlands) and Domitor (Pfizer, Capelle a/d lJssel, The Netherlands). Small bone marrow aspirates for analytical purposes were taken from the shafts of the femurs or humeri using pediatric spinal needles and collected in bottles containing 2 mL HEPES buffered Hanks' balanced salt solution (HBBS) with 200 IU sodium heparin/mL (Leo Pharmaceutical Products, Weesp, the Netherlands). Low-density cells were isolated using Lymphoprep (density 1.077, Fresenius, Oslo, Norway) separation. Cells were plated in 35-mm dishes (Falcon 1008, Becton Dickinson, Leiden, The Netherlands) in 1 mL enriched Dulbecco's medium containing 0.8% methylcellulose, 5% FCS, and additives. […] Colony counts were calculated per mL of bone marrow aspirated using the recovery of cells over the Ficoll density gradient. […] Complete blood cell counts were measured daily using an ABC-vet animal blood counter (Scil, ABX diagnostics, Montpellier, France). […] Measurements were done using a FACSCalibur (Becton Dickinson, Leiden, The Netherlands) and 50,000 events were collected in duplicate and analyzed using the CellQuest (Becton Dickinson) software. […]

[2] = tested on: immature repopulating cells in bone marrow of BALB/c donor mice; experiment: Immature repopulating cell subsets (CFU-S day 12, MRA day 13) after fractionated 3x2 Gy TBI of BALB/c donor mice; type: in vivo; details: fractionated 3×2 Gy TBI; for increase in CFU-S day 12 relative to radiation controls: 40 mg/Kg/d 5-AED IM, 0.7 μg TPO IP after each fraction
Protocol: (§1) Combination Treatment with androst-5-ene-3β,17β-diol formulation and TPO. For direct measurements of the radioprotective effect of 5-AED, BALB/c mice were exposed to a midlethal dose of 6 Gy TBI. Two hours after TBI, mice were injected IM with 40 mg/kg 5-AED or the carrier as placebo, with or without 0.225 μg TPO or 10 μg Peg-G-CSF IP. Radioprotective effects of 5-AED on immature repopulating cell subsets were assessed by exposing BALB/c donor mice to 3 fractions of 2 Gy TBI, separated by 24 hours, and treatment with 40 mg/Kg/d 5-AED or the carrier IM, or 0.7 μg TPO IP after each fraction or a single injection of 10 μg Peg-G-CSF IP after the first fraction. Twenty four hours after the last fraction, bone marrow of donor mice was examined for immature cell content per femur using the marrow repopulating ability (MRA day 13) assay and the CFU-S day 12 after transplantation in 8 Gy irradiated mice.

[3] = tested on: BALB/c mice exposed to 6 Gy TBI; experiment: Radioprotective effect in BALB/c mice after midlethal 6 Gy TBI; type: in vivo
Protocol: as §1

C[C@]12CC[C@H]3[C@@H](CC=C4C[C@@H](O)CC[C@@]43C)[C@@H]1CC[C@@H]2O [5-AED, androst-5-ene-3β,17β-diol]
bone marrow cellularity [1]: 8.7±5.3 ×10^6 cells/mL bone marrow aspirate | day reticulocytes reached levels >0.05×10^9/mL in peripheral blood [1]: 19.0±1.1 day | direct local or systemic toxic effects [1]: not observed | edema [1]: transient edema, which resolved without sequela | increase in body weight due to fluid retention [1]: up to 13.6% | increase of CD34+ cells in BM in comparison to HERF-418 treated monkeys [1]: 90 fold | neutrophil recovery [1]: accelerated neutrophil recovery | reduction of the period of leukopenia [1]: 4 days | shortening of the time to transfusion-independence [1]: 4 days | transfusions needed to maintain platelets levels of >40×10^6/mL [1]: 1.3±0.5 | day of maximum neutrophilic granulocyte increase after initiation of the treatment (non-irradiated monkeys): 2 days | effect on other hematopoietic lineages, bone marrow cellularity and progenitor cell content (non-irradiated monkeys): did not affect | increase from baseline levels in neutrophilic granulocytes in the peripheral blood (non-irradiated monkeys; n=5): 3.6 fold | increase in CFU-S day 12 relative to radiation controls [2]: 5 fold | MRA, expressed as GM-CFU per femur at 13 days after transplantation ([2]; 40 mg/Kg/d IM, range 0-5785): 1002 colonies | multilineage recovery (white blood cells, platelets, red blood cells, bone marrow cellularity, colony forming cells) ([3]; 40 mg/kg IM 2 hours after 6 Gy TBI, 14 days post-TBI vs placebo): accelerated multilineage recovery | effect of increasing the dose on multilineage recovery ([3]; dose up to 200 mg/kg): did not augment this effect

B1: Peg-G-CSF: Peg-G-CSF injected IP in mice (protein, UniProt P09919 31-207, looked up)
Granulocyte …: TPLGPASSLPQSFLLKCLEQVRKIQGDGAALQEKLVSECATYKLCHPEELVLLGHSLGIPWAPLSSCPSQALQLAGCLSQLHSGLFLYQGLLQALEGISPELGPTLDTLQLDVADFATTIWQQMEELGMAPALQPTQGAMPAFASAFQRRAGGVLVASHLQSFLEVSYRVLRHLAQP
modifications: PEGylated
notes: Peg-G-CSF injected IP in mice
effect on CFU-S day 12 ([2]; single injection 10 μg Peg-G-CSF IP after first fraction): did not affect

B2: TPO: TPO injected IP in mice; promotes CFU-S reconstitution (protein, UniProt P40226 22-356, looked up)
Thrombopoietin: SPVAPACDPRLLNKLLRDSHLLHSRLSQCPDVDPLSIPVLLPAVDFSLGEWKTQTEQSKAQDILGAVSLLLEGVMAARGQLEPSCLSSLLGQLSGQVRLLLGALQGLLGTQLPLQGRTTAHKDPNALFLSLQQLLRGKVRFLLLVEGPTLCVRRTLPTTAVPSSTSQLLTLNKFPNRTSGLLETNFSVTARTAGPGLLSRLQGFRVKITPGQLNQTSRSPVQISGYLNRTHGPVNGTHGLFAGTSLQTLEASDISPGAFNKGSLAFNLQGGLPPSPSLAPDGHTPFPPSPALPTTHGSPPQLHPLFPDPSTTMPNSTAPHPVTMYPHPRNLSQET
increase in CFU-S day 12 relative to radiation controls [2]: 7 fold
